In US9227971B2, “Pyrazolo[1,5-a]pyrimidine compounds as mTOR inhibitors” (Merck Sharp & Dohme Corp., priority 2010, dated 2016):

Key:
[1] = test system: phosphorylated AKT Ser473 (pAKT S473), mTORC2 activity, PC3 cells; test: mTOR target engagement assay, immunofluorescent cell-based, pAKT S473 readout (mTORC2 activity); details: Homo sapiens, PC-3, PC3 cells, compound treatment ninety minutes at 37° C.
Method: (§1) The target engagement of mTOR kinase inhibitors was evaluated using an immunofluorescent cell-based assay. In this assay, inhibition of mTORC1 activity was measured by the reduction in the level of phosphorylated 4E-BP1^[…] (p4E-BP1 Thr37/46), and inhibition of mTORC2 activity was measured by the reduction of phosphorylated AKT^Ser473 (pAKT S473).
PC3 cells (prostate tumor cell-line that contains a mutation in the tumor suppressor PTEN, that promotes the phosphorylation and activation of AKT and 4E-BP1) were used in the immunofluorescence assay. […] PC3 cells were then treated with 40 μl of the serially diluted test compounds (in 5% fetal bovine serum, F12 medium containing 0.25% DMSO) for ninety minutes at 37° C. The test compound solution was removed, and the plates were washed gently two times with 25 μl phosphate buffered saline (PBS). […] 5% Goat serum in PBS/0.3% Triton was used to block non-specific binding (60 minutes).
The primary antibodies targeting pAKT S473 and p4E-BP1 Thr37/46 were diluted into PBS/0.3% Triton and incubated with the cells overnight at 4° C. […] Plates were washed three times with PBS/0.1% Tween 20 before adding the secondary antibody at a 1:200 dilution.
Finally, the plates were washed three times with PBS/0.1% Tween 20 and the fluorescent intensity was read using an Analyst HT from Molecular Devices.

[2] = test system: phosphorylated 4E-BP1 Thr37/46 (p4E-BP1 Thr37/46), mTORC1 activity, PC3 cells; test: mTOR target engagement assay, immunofluorescent cell-based, p4E-BP1 Thr37/46 readout (mTORC1 activity); details: Homo sapiens, PC-3, PC3 cells, compound treatment ninety minutes at 37° C.; read-out: p4E-BP1 Thr37/46 IC50
Method: as §1
PC3 cells (prostate tumor cell-line that contains a mutation in the tumor suppressor PTEN, that promotes the phosphorylation and activation of AKT and 4E-BP1) were used in the immunofluorescence assay. PC3 cells were seeded on 384 well plates (black clear bottom, Matrix #4332) overnight. PC3 cells were then treated with 40 μl of the serially diluted test compounds (in 5% fetal bovine serum, F12 medium containing 0.25% DMSO) for ninety minutes at 37° C. The test compound solution was removed, and the plates were washed gently two times with 25 μl phosphate buffered saline (PBS). The cells were fixed by adding 25 μl of Prefer reagent (from Anatech LTD, Cat#414, a glyoxal fixative for fixing proteins within a cell) for sixty minutes followed by three washes with PBS. 5% Goat serum in PBS/0.3% Triton was used to block non-specific binding (60 minutes).
The primary antibodies targeting pAKT S473 and p4E-BP1 Thr37/46 were diluted into PBS/0.3% Triton and incubated with the cells overnight at 4° C. The antibodies targeting pAKTS473 (Cat#4085, Cell signaling) and p4E-BP1 Thr37/46 (Cat#2855, Cell signaling) were used at a 1:100 dilution. Plates were washed three times with PBS/0.1% Tween 20 before adding the secondary antibody at a 1:200 dilution. (goat anti-rabbit containing a fluorescent label, Alexa Fluor 488, Cat#A11008, Invitrogen) in PBS/0.3% Triton for 60 minutes.
Finally, the plates were washed three times with PBS/0.1% Tween 20 and the fluorescent intensity was read using an Analyst HT from Molecular Devices. The fluorescent intensity values from the serially diluted compound treatment group were analyzed using the Xlfit 4 program ([…]) (Formula 205: Y=Bottom+(Top-Bottom)/(1+(IC50/X)^Hillslope) to generate the IC50 value. Where Top is the maximum signal without Compound (+DMSO only) and Bottom represents maximum inhibition. Y is the fluorescence at some compound concentration. The control used to determine the fluorescent intensities for 100% pAKT S473 or 100% phosphorylated p4E-BP1 Thr37/46 were measured from untreated wells that contained only DMSO, instead of test compound.

Row | Compound | IC50 [1] [nM] | IC50 [2] [nM]
1 | CC(=O)c1c([C@@H]2C[C@H]3CC[C@@H](C2)N3C(=O)C(C)(CO)CO)nc2c(-c3ccc(-c4ccccc4)nc3)cnn2c1N [Compound 1.1.1, 1-((1R,3s,5S)-3-(6-acetyl-7-amino-3-(6-phenylpyridin-3-yl)pyrazolo[1,5-a]pyrimidin-5-yl)-8-azabicyclo[3.2.1]octan-8-yl)-3-hydroxy-2-(hydroxymethyl)-2-methylpropan-1-one] | 100 to 1000 | 100 to 1000
2 | CC(=O)c1c([C@@H]2C[C@H]3CC[C@@H](C2)N3C(=O)[C@@H](C)O)nc2c(-c3ccc(-c4ccccc4)nc3)cnn2c1N [Compound 1.1.2] | 1 to 100 | 100 to 1000
3 | CC(=O)c1c([C@@H]2C[C@H]3CC[C@@H](C2)N3C(=O)CO)nc2c(-c3ccc(-c4ccccc4)nc3)cnn2c1N [Compound 1.1.5, 1-((1R,3s,5S)-3-(6-acetyl-7-amino-3-(6-phenylpyridin-3-yl)pyrazolo[1,5-a]pyrimidin-5-yl)-8-azabicyclo[3.2.1]octan-8-yl)-2-hydroxyethanone] | 1 to 100 | 1 to 100
4 | CC(=O)c1c(C2CC3CCC(C2)N3C(=O)c2nnc[nH]2)nc2c(-c3ccc(-c4ccccc4)nc3)cnn2c1N [Compound 1.1.7, 1-(5-((1R,3s,5S)-8-(1H-1,2,4-triazole-3-carbonyl)-8-azabicyclo[3.2.1]octan-3-yl)-7-amino-3-(6-phenylpyridin-3-yl)pyrazolo[1,5-a]pyrimidin-6-yl)ethanone] | 1 to 100 | 1 to 100
5 | CC(=O)c1c([C@@H]2C[C@H]3CC[C@@H](C2)N3C(=O)[C@H](C)O)nc2c(-c3ccc(-c4ccccc4)nc3)cnn2c1N [Compound 1.1.8, (S)-1-((1R,3R,5S)-3-(6-acetyl-7-amino-3-(6-phenylpyridin-3-yl)pyrazolo[1,5-a]pyrimidin-5-yl)-8-azabicyclo[3.2.1]octan-8-yl)-2-hydroxypropan-1-one] | 1 to 100 | 100 to 1000
6 | CC(=O)c1c([C@H]2C[C@H]3CC[C@@H](C2)N3C(=O)CO)nc2c(-c3ccc(-c4ccccc4)nc3)cnn2c1N [Compound 1.1.9, 1-((1R,3r,5S)-3-(6-acetyl-7-amino-3-(6-phenylpyridin-3-yl)pyrazolo[1,5-a]pyrimidin-5-yl)-8-azabicyclo[3.2.1]octan-8-yl)-2-hydroxyethanone] | 100 to 1000 | 100 to 1000
7 | CC(=O)c1c([C@@H]2C[C@H]3CC[C@@H](C2)N3C(=O)Cc2nnn[nH]2)nc2c(-c3ccc(-c4ccccc4)nc3)cnn2c1N [Compound 1.1.20, 1-((1R,3s,5S)-3-(6-acetyl-7-amino-3-(6-phenylpyridin-3-yl)pyrazolo[1,5-a]pyrimidin-5-yl)-8-azabicyclo[3.2.1]octan-8-yl)-2-(1H-tetrazol-5-yl)ethanone] | 100 to 1000 | 1000 to 10000
8 | CC(=O)c1c(C2CC3CCC(C2)N3C(=O)c2c[nH]nn2)nc2c(-c3ccc(-c4ccccc4)nc3)cnn2c1N [Compound 1.1.21, 1-(5-((1R,3s,5S)-8-(1H-1,2,3-triazole-5-carbonyl)-8-azabicyclo[3.2.1]octan-3-yl)-7-amino-3-(6-phenylpyridin-3-yl)pyrazolo[1,5-a]pyrimidin-6-yl)ethanone] | 1 to 100 | 1 to 100
9 | CC(=O)c1c(C2CC3CCC(C2)N3C(=O)c2nnc(C)[nH]2)nc2c(-c3ccc(-c4ccccc4)nc3)cnn2c1N [Compound 1.1.22, 1-(7-amino-5-((1R,3s,5S)-8-(3-methyl-1H-1,2,4-triazole-5-carbonyl)-8-azabicyclo[3.2.1]octan-3-yl)-3-(6-phenylpyridin-3-yl)pyrazolo[1,5-a]pyrimidin-6-yl)ethanone] | 1 to 100 | 1 to 100
10 | CC(=O)c1c([C@@H]2C[C@H]3CC[C@@H](C2)N3C(=O)CNS(C)(=O)=O)nc2c(-c3ccc(-c4ccccc4)nc3)cnn2c1N [Compound 1.1.23, N-(2-((1R,3s,5S)-3-(6-acetyl-7-amino-3-(6-phenylpyridin-3-yl)pyrazolo[1,5-a]pyrimidin-5-yl)-8-azabicyclo[3.2.1]octan-8-yl)-2-oxoethyl)methanesulfonamide] | 100 to 1000 | 100 to 1000
11 | CC(=O)c1c(C2CC3CCC(C2)N3C(=O)c2nn[nH]n2)nc2c(-c3ccc(-c4ccccc4)nc3)cnn2c1N [Compound 1.1.24, 1-(5-((1R,3s,5S)-8-(1H-tetrazole-5-carbonyl)-8-azabicyclo[3.2.1]octan-3-yl)-7-amino-3-(6-phenylpyridin-3-yl)pyrazolo[1,5-a]pyrimidin-6-yl)ethanone] | 1000 to 10000 | 1000 to 10000
12 | NC(=O)c1c([C@@H]2C[C@H]3CC[C@@H](C2)N3C(=O)c2nc[nH]n2)nc2c(-c3ccc(-c4ccccc4)nc3)cnn2c1N [Compound 1.1.25, 5-((1R,3s,5S)-8-(1H-1,2,4-triazole-3-carbonyl)-8-azabicyclo[3.2.1]octan-3-yl)-7-amino-3-(6-phenylpyridin-3-yl)pyrazolo[1,5-a]pyrimidine-6-carboxamide] | 1 to 100 | 1 to 100
13 | CC(=O)c1c([C@@H]2C[C@H]3CC[C@@H](C2)N3C(=O)c2nc[nH]n2)nc2c(-c3ccc(-c4ncc(C(F)F)s4)nc3)cnn2c1N [Compound 1.1.26, 1-(5-((1R,3s,5S)-8-(1H-1,2,4-triazole-3-carbonyl)-8-azabicyclo[3.2.1]octan-3-yl)-7-amino-3-(6-(5-(difluoromethyl)thiazol-2-yl)pyridin-3-yl)pyrazolo[1,5-a]pyrimidin-6-yl)ethanone] | 100 to 1000 | 100 to 1000
14 | CNC(=O)c1ccc(-c2cnn3c(N)c(C(C)=O)c([C@@H]4C[C@H]5CC[C@@H](C4)N5C(=O)c4nc[nH]n4)nc23)cn1 [Compound 1.1.28, 5-(5-((1R,3s,5S)-8-(1H-1,2,4-triazole-3-carbonyl)-8-azabicyclo[3.2.1]octan-3-yl)-6-acetyl-7-aminopyrazolo[1,5-a]pyrimidin-3-yl)-N-methylpicolinamide] | 1000 to 10000 | 1000 to 10000
15 | CC(=O)c1c([C@@H]2C[C@H]3CC[C@@H](C2)N3C(=O)c2nnc[nH]2)nc2c(-c3cnc(-c4ccccc4)c(O)c3)cnn2c1N [Compound 1.1.31, 1-(5-((1R,3s,5S)-8-(4H-1,2,4-triazole-3-carbonyl)-8-azabicyclo[3.2.1]octan-3-yl)-7-amino-3-(5-hydroxy-6-phenylpyridin-3-yl)pyrazolo[1,5-a]pyrimidin-6-yl)ethanone] | 1000 to 10000 | 1000 to 10000
16 | CC(=O)c1c([C@@H]2C[C@H]3CC[C@@H](C2)N3C(=O)CO)nc2c(-c3cnc(-c4ccccc4)c(O)c3)cnn2c1N [Compound 1.1.32, 1-((1R,3s,5S)-3-(6-acetyl-7-amino-3-(5-hydroxy-6-phenylpyridin-3-yl)pyrazolo[1,5-a]pyrimidin-5-yl)-8-azabicyclo[3.2.1]octan-8-yl)-2-hydroxyethanone] | 1000 to 10000 | 1000 to 10000
17 | CC(=O)c1c([C@@H]2C[C@H]3CC[C@@H](C2)N3C(=O)CO)nc2c(-c3ccc(-c4nccs4)nc3)cnn2c1N [Compound 1.1.33, 1-((1R,3s,5S)-3-(6-acetyl-7-amino-3-(6-(thiazol-2-yl)pyridin-3-yl)pyrazolo[1,5-a]pyrimidin-5-yl)-8-azabicyclo[3.2.1]octan-8-yl)-2-hydroxyethanone] | 1 to 100 | 100 to 1000
18 | COc1ccc(-c2ccc(-c3cnn4c(N)c(C(C)=O)c([C@@H]5C[C@H]6CC[C@@H](C5)N6C(=O)CO)nc34)cn2)cc1CO [Compound 1.1.36, 1-((1R,3s,5S)-3-(6-acetyl-7-amino-3-(6-(3-(hydroxymethyl)-4-methoxyphenyl)pyridin-3-yl)pyrazolo[1,5-a]pyrimidin-5-yl)-8-azabicyclo[3.2.1]octan-8-yl)-2-hydroxyethanone] | 1 to 100 | 1 to 100
